What all share (test): Broth dilution MIC
What all share (type): cell-based
On the technique in general: In broth dilution the organism is exposed to a series of concentrations in liquid medium.

One experiment has as its system CNS GC 4547. The note with it: CNS GC 4547; Mueller-Hinton broth, 18 hours at 35° C.; read-out: Antimicrobial Activity (MIC). The gist of the method: (§1)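 Mueller-Hinton broth, serial compound dilutions, bacterial inoculum; 18 h, 35° C. MIC = lowest concentration with no growth.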
The subject of a further experiment is E. coli GC 4560. The settings on record: Escherichia coli, GC4560, 18 h, read-out: Antimicrobial Activity (MIC). Summed up:
as §1

A further experiment relates to P. aeruginosa GC 4532. The note with it: Pseudomonas aeruginosa, GC4532; P. aeruginosa GC 4532; Mueller-Hinton broth, 18 hours at 35° C.; read-out: Antimicrobial Activity (MIC). Summed up:
as §1

A further experiment concerns E. faecalis GC 4555. The note with it: Enterococcus faecalis, GC4555; E. faecalis GC 4555; Mueller-Hinton broth, 18 hours at 35° C.; read-out: Antimicrobial Activity (MIC). Summed up:
as §1

For the next experiment, the system named is S. aureus GC 4536. The note with it: Staphylococcus aureus, GC4536; S. aureus GC 4536; Mueller-Hinton broth, 18 hours at 35° C.; read-out: Antimicrobial Activity (MIC). The gist of the method:
as §1

In a further experiment the test system is M. morganii GC 4531. The settings on record: Morganella morganii, GC4531; M. morganii GC 4531; Mueller-Hinton broth, 18 hours at 35° C.; read-out: Antimicrobial Activity (MIC). The gist of the method: as §1
The next experiment concerns K. pneumoniae GC 4534. The settings on record: Klebsiella pneumoniae, GC4534; K. pneumoniae GC 4534; Mueller-Hinton broth, 18 hours at 35° C.; read-out: Antimicrobial Activity (MIC). Summed up:
as §1

Another experiment concerns E. faecalis GC 2242. The settings on record: Enterococcus faecalis, GC2242; E. faecalis GC 2242; Mueller-Hinton broth, 18 hours at 35° C.; read-out: Antimicrobial Activity (MIC). The gist of the method: as §1
The next experiment relates to S. aureus GC 2216. The note with it: Staphylococcus aureus, GC2216; S. aureus GC 2216; Mueller-Hinton broth, 18 hours at 35° C.; read-out: Antimicrobial Activity (MIC). The gist of the method: as §1
The subject of a further experiment is S. aureus GC 1131. The note with it: Staphylococcus aureus, GC1131; S. aureus GC 1131; Mueller-Hinton broth, 18 hours at 35° C.; read-out: Antimicrobial Activity (MIC). Summed up: as §1
A further experiment deals with E. faecalis GC 842. The settings on record: Enterococcus faecalis, GC842; E. faecalis GC 842; Mueller-Hinton broth, 18 hours at 35° C.; read-out: Antimicrobial Activity (MIC). Summed up:
as §1

The subject of a further experiment is E. coli GC 3226. The settings on record: Escherichia coli, GC3226; E. coli GC 3226; Mueller-Hinton broth, 18 hours at 35° C.; read-out: Antimicrobial Activity (MIC). The gist of the method: as §1
The next experiment has as its system S. marcescens GC 4077. The note with it: Serratia marcescens, GC4077; S. marcescens GC 4077; Mueller-Hinton broth, 18 hours at 35° C.; read-out: Antimicrobial Activity (MIC). Summed up:
as §1

The next experiment relates to E. coli GC 2203. The settings on record: Escherichia coli, GC2203; E. coli GC 2203; Mueller-Hinton broth, 18 hours at 35° C.; read-out: Antimicrobial Activity (MIC). Summed up: as §1
For a further experiment, the system named is CNS GC 4537. The note with it: CNS GC 4537; Mueller-Hinton broth, 18 hours at 35° C.; read-out: Antimicrobial Activity (MIC). The gist of the method: as §1
Another experiment concerns E. coli GC 4559. The note with it: Escherichia coli, GC4559; E. coli GC 4559; Mueller-Hinton broth, 18 hours at 35° C.; read-out: Antimicrobial Activity (MIC). Summed up:
as §1

The next experiment has as its system E. cloacae GC 3783. The note with it: Enterobacter cloacae, GC3783; E. cloacae GC 3783; Mueller-Hinton broth, 18 hours at 35° C.; read-out: Antimicrobial Activity (MIC). Summed up: as §1
The subject of a further experiment is CNS GC 4538. The note with it: CNS GC 4538; Mueller-Hinton broth, 18 hours at 35° C.; read-out: Antimicrobial Activity (MIC). Summed up:
as §1

Another experiment has as its system P. aeruginosa GC 2214. The note with it: Pseudomonas aeruginosa, GC2214; P. aeruginosa GC 2214; Mueller-Hinton broth, 18 hours at 35° C.; read-out: Antimicrobial Activity (MIC). The gist of the method: as §1
A further experiment concerns P. rettgeri GC 4530. The settings on record: Providencia rettgeri, GC4530; P. rettgeri GC 4530; Mueller-Hinton broth, 18 hours at 35° C.; read-out: Antimicrobial Activity (MIC). Summed up: as §1

Values after ≈ are worked out from the molar mass of the structure shown.

For orientation: MIC means the lowest concentration found to suppress growth. For `CCCCCN(CCCNC(=O)C(NC(=O)C(NC(=O)NC(C(=O)O)C(C)C)C1CCNC(=N)N1)C(O)C(C)C)C(C(=O)O)[C@@H](OC1O[C@H](CN)[C@H](O)[C@H]1OC)[C@H]1O[C@@H](n2ccc(=O)[nH]c2=O)[C@H](O)[C@@H]1O` (stereo partly drawn) [Example 9, 16-((R)-{[(3R,4S,5R)-5-(Aminomethyl)-4-hydroxy-3-methoxytetrahydro-2-furanyl]oxy}{(2S,3S,4R,5R)-5-[2,4-dioxo-3,4-di hydro-1 (2H)-pyrimidinyl]-3,4-dihydroxytetrahydro-2-furanyl}methyl)-9-(1-hydroxy-2-methylpropyl)-6-(2-iminohexahydro-4-pyrimidinyl)-2-isopropyl-4,7,10-trioxo-15-pentyl-3,5,8,11,15-pentaazaheptadecane-1,17-dioic Acid], the MIC in the experiment on CNS GC 4547 was above 32 mg/L; in the experiment with E. coli GC 4560 it was 32 mg/L (≈ 31.5 µM); in the experiment with P. aeruginosa GC 4532 it was above 32 mg/L; with E. faecalis GC 4555, above 32 mg/L; with S. aureus GC 4536, above 32 mg/L; with M. morganii GC 4531, above 32 mg/L. The MIC with K. pneumoniae GC 4534, with E. faecalis GC 2242, in the experiment on S. aureus GC 2216, with S. aureus GC 1131, in the experiment on E. faecalis GC 842 and with E. coli GC 3226 was above 32 mg/L throughout. The minimum inhibitory concentration (MIC) with S. marcescens GC 4077, in the experiment on E. coli GC 2203, in the experiment with CNS GC 4537, in the experiment on E. coli GC 4559, in the experiment on E. cloacae GC 3783 and with CNS GC 4538 was above 32 mg/L each time. The MIC with P. aeruginosa GC 2214 and with P. rettgeri GC 4530 was above 32 mg/L throughout.
Turning to `CO[C@H]1C(O[C@H](C(C(=O)O)N(CCCCCCCCCCCC[N+]2(C)CCOCC2)CCCNC(=O)C(NC(=O)C(NC(=O)NC(C(=O)O)C(C)C)C2CCNC(=N)N2)C(O)C(C)C)[C@H]2O[C@@H](n3ccc(=O)[nH]c3=O)[C@H](O)[C@@H]2O)O[C@H](CN)[C@@H]1O` (stereo partly drawn) [Example 10, 4-[13-((2R)-2-{[(3R,4S,5R)-5-(Aminomethyl)-4-hydroxy-3-methoxytetrahydro-2-furanyl]oxy}-1-carboxy-2-{(2S,3S,4R,5R)-5-[2,4-dioxo-3,4-dihydro-1 (2H)-pyrimidinyl]-3,4-dihydroxytetrahydro-2-furanyl}ethyl)-26-carboxy-19-(1-hydroxy-2-methylpropyl)-22-(2-iminohexahydro-4-pyrimidinyl) -27-methyl-18,21,24-trioxo-13,17,20,23,25-pentaazaoctacos-1-yl]-4-methylmorpholin-4-ium], the minimal inhibitory concentration (MIC) was above 32 mg/L in the experiment with CNS GC 4547; 16 mg/L in the experiment with E. coli GC 4560; above 32 mg/L in the experiment with P. aeruginosa GC 4532; above 32 mg/L with E. faecalis GC 4555; above 32 mg/L in the experiment with S. aureus GC 4536; above 32 mg/L in the experiment with M. morganii GC 4531. The MIC in the experiment on K. pneumoniae GC 4534, in the experiment on E. faecalis GC 2242, in the experiment with S. aureus GC 2216, in the experiment with S. aureus GC 1131, in the experiment with E. faecalis GC 842 and in the experiment with E. coli GC 3226 was above 32 mg/L in each case. The MIC in the experiment with S. marcescens GC 4077, with E. coli GC 2203, in the experiment on CNS GC 4537, in the experiment on E. coli GC 4559, in the experiment with E. cloacae GC 3783 and in the experiment with CNS GC 4538 was above 32 mg/L throughout. Moreover, the MIC with P. aeruginosa GC 2214 and with P. rettgeri GC 4530 was above 32 mg/L in each case.

The record behind these values is patent US6727232B2, “Nucleoside peptide antibiotics of AA-896” (Wyeth Holdings Corporation, priority 2001, dated 2004).
